# PMC10387993, “New pyrimidine-N-β-D-glucosides: synthesis, biological evaluation, and molecular docking investigations” (Turkish Journal of Chemistry, 2023)
# Legend:
# calf thymus DNA (CT-DNA) = assay: DNA binding study, UV-Visible absorption titration; conditions: UV-Vis titration, 25 μM compound
# Text: The vast majority of anticancer agents used in pharmaceutical chemistry act on functional macromolecules such as DNA and proteins. Given this well-known fact, the relationship between newly developed anticancer drug candidates and macromolecules should be studied in detail. The interaction of molecules with DNA leads to significant changes in the helical structure of DNA, which can be observed by spectrophotometric techniques. […] Also, the red or blue shift in the absorption bands of the compounds can be an indication of the stability of the compound and the DNA structure. The DNA/BSA binding properties of the new chemicals synthesized by our group were determined using a UV-Vis spectrophotometer. The interactions of these compounds with DNA were as follows. […] Kb is the binding constant related to the complex to DNA and can be calculated algebraically from the slope of the line drawn between [DNA] / (ɛa-ɛf) and [DNA]. […]
# To find the interaction of the compounds with calf thymus DNA and to calculate the binding constants (Kb) UV–Visible absorption spectroscopy technique was used. […] After dissolving the calf thymus DNA fibers in Tris–HCl buffer, the purity of this solution was checked from the absorbance ratio A260/A280. […] Absorption spectra were recorded by using 1-cm-path quartz cuvettes at room temperature. […]
# BSA = BSA (Bos taurus, UniProt P02769); assay: BSA binding study, UV-Visible absorption; conditions: UV-Vis, 25 μM compound, BSA 6.5–800 μM
# Text: The vast majority of anticancer agents used in pharmaceutical chemistry act on functional macromolecules such as DNA and proteins. Given this well-known fact, the relationship between newly developed anticancer drug candidates and macromolecules should be studied in detail. The interaction of molecules with DNA leads to significant changes in the helical structure of DNA, which can be observed by spectrophotometric techniques. […] Also, the red or blue shift in the absorption bands of the compounds can be an indication of the stability of the compound and the DNA structure. The DNA/BSA binding properties of the new chemicals synthesized by our group were determined using a UV-Vis spectrophotometer. The interactions of these compounds with DNA were as follows. In the spectra obtained by UV-Vis studies of the compounds, a single maximum absorption peak was observed and this peak had no clear bathochromic or hypsochromic effect. […]. […] The physical interactions of our newly synthesized compounds with BSA caused the formation of the spectral bands described below. […]. […]. Kb is the binding constant related to the complex to DNA and can be calculated algebraically from the slope of the line drawn between [DNA] / (ɛa-ɛf) and [DNA]. […].
# To find the interaction of the compounds with calf thymus DNA and to calculate the binding constants (Kb) UV–Visible absorption spectroscopy technique was used. A 2.5-mg calf thymus DNA was dissolved in 10.0 mL Tris–HCl buffer (20 mM Tris–HCl, 20 mM NaCl, pH 7.0) and stabile during one week in the refrigerator. […]. After dissolving the calf thymus DNA fibers in Tris–HCl buffer, the purity of this solution was checked from the absorbance ratio A260/A280. […]. These compounds were diluted with Tris–HCl buffer to obtain 25 μM concentrations. Test compounds in the solutions were incubated at room temperature for nearly 30 min before the process. The UV-visible spectral studies were performed in mixed solvent system (1/9 DMSO/Tris–HCl buffer) using eight points that the fine structure is observed for these compounds in this system by UV-visible absorption. […]. Absorption spectra were recorded by using 1-cm-path quartz cuvettes at room temperature. To evaluate the interaction of the compounds with BSA, UV–Visible absorption spectroscopy technique was also used. A 2.5 mg BSA was dissolved in 10.0 mL of Tris–HCl buffer (5 mM Tris–HCl, 10 mM NaCl at pH 7.4) and stored in the refrigerator. […]
# Chain of BSA (P02769 25-607): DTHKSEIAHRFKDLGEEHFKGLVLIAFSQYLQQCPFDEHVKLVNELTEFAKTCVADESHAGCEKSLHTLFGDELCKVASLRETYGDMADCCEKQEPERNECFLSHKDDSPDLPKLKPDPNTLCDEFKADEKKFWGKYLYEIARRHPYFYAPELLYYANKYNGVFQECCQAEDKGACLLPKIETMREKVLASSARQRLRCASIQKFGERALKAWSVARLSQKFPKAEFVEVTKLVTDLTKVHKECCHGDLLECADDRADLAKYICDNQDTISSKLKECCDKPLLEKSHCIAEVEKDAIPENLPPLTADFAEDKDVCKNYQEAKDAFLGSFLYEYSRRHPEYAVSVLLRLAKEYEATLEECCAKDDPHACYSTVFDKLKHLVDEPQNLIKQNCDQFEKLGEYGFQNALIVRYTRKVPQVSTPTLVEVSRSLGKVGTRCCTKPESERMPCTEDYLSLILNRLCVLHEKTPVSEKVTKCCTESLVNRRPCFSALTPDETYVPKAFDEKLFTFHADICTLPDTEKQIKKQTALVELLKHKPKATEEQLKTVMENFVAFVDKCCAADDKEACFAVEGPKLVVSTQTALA
compound,measurement,setting,value
"Cc1ccccc1-c1cc(-c2ccccn2)nc(N[C@@H]2O[C@H](CO)[C@@H](O)[C@H](O)[C@H]2O)n1 [Compound 1, N-[4-(2-methylphenyl)-6-pyridin-2-ylpyrimidin-2-yl]-β-D-glucopyranosylamine]",binding constant (Kb),calf thymus DNA (CT-DNA),greater interest in DNA than the anticancer drugs cisplatin and 5FU
"Cc1cccc(-c2cc(-c3ccccn3)nc(N[C@@H]3O[C@H](CO)[C@@H](O)[C@H](O)[C@H]3O)n2)c1 [Compound 4, N-[4-(3-methylphenyl)-6-pyridin-2-ylpyrimidin-2-yl]-β-D-glucopyranosylamine]",change of absorption on adding increasing amounts of BSA,BSA,hyperchromic activity
"Cc1cccc(-c2cc(-c3ccncc3)nc(N[C@@H]3O[C@H](CO)[C@@H](O)[C@H](O)[C@H]3O)n2)c1 [Compound 6, N-[4-(3-methylphenyl)-6-pyridin-4-ylpyrimidin-2-yl]-β-D-glucopyranosylamine]",change of absorption on adding increasing amounts of BSA,BSA,hyperchromic activity
"Cc1ccc(-c2cc(-c3ccncc3)nc(N[C@@H]3O[C@H](CO)[C@@H](O)[C@H](O)[C@H]3O)n2)cc1 [Compound 9, N-[4-(4-methylphenyl)-6-pyridin-4-ylpyrimidin-2-yl]-β-D-glucopyranosylamine]",change of absorption on adding increasing amounts of BSA,BSA,hyperchromic activity
"CC(=O)OC[C@H]1O[C@@H](Nc2nc(-c3ccc(C)cc3)cc(-c3ccccn3)n2)[C@H](OC(C)=O)[C@@H](OC(C)=O)[C@@H]1OC(C)=O [Compound 16, 2,3,4,6-tetra-O-acetyl-N-[4-(4-methylphenyl)-6-pyridin-2-ylpyrimidin-2-yl]-β-D-glucopyranosylamine]",change of absorption on adding increasing amounts of BSA,BSA,hypochromically
